Laboratory results as given in PMC8820799, “Angiogenesis and anti-leukaemia activity of novel indole derivatives as potent colchicine binding site inhibitors” (Journal of Enzyme Inhibition and Medicinal Chemistry, 2022).
≈ marks a conversion by molar mass, not a printed value. Where two headings read alike, the source gives them in different places.

Legend:
[1] = system: transgenic zebrafish (FLK-1:EGFP); assay: Zebrafish angiogenesis assay (ISVs); assay type: in vivo; details: for IC50: transgenic zebrafish, triplicate, mean ± SD, read-out: Zebrafish (antiangiogenic activity IC50)
Description: The transgenic flk: enhanced GFP zebrafish embryos were generated by pair-wise mating, collected and sorted into the 6-well plate (n = 30 per well) with 1 ml of aquaculture water (0.2 g/L of Instant Ocean Salt in distilled water) and raised at 28 °C. Then the embryos staged at 12 h post fertilisation (hpf) were treated with the indicated concentrations of compounds which were added into embryo water. About 30 embryos were screened for each concentration gradient. At 30hpf, the treated embryos were anaesthetised with 0.02% tricaine in embryo water and photographed. The numbers of ISVs were recorded under confocal microscopy. Results were obtained from three independent determinations and presented as mean ± SD.[38]

[2] = system: THP-1; assay: CCK-8 assay, THP-1; assay type: cell-based; details: Homo sapiens, leukaemia, AML, CCK-8, 72 h
Description: (§1) Cells were seeded in 96-well plates at a density of 8 × 10^3 per well and exposed to different concentrations of compounds for 72 h. Subsequently, 10 µL CCK8 solution was added to each well and co-incubated for another 3–4 h at 37 °C. The absorbance was determined at 450 nm. Data was calculated with GraphPad Prism5 software.[32]

[3] = system: Jurkat; assay: CCK-8 assay, Jurkat; assay type: cell-based; details: Homo sapiens, leukaemia, ALL, CCK-8, 72 h
Description: as §1

[4] = system: HuT 78; assay: CCK-8 assay, HuT 78; assay type: cell-based; details: Homo sapiens, HuT78; leukaemia, ALL; CCK-8, 72 h
Description: as §1

[5] = system: K562 cells; assay: Cell apoptosis assay by flow cytometry (Annexin V-PE/PI); assay type: cell-based; details: K562, 48 h; after treatment of 29e (control 5.95%); equals Q2+Q3 at 200 nM
Description: K562 cells at 8х10^4 cells/well were seeded in 12-well cell culture plates overnight and the cultured cells were incubated with a dose range of compounds 29e for 48 h. The treated or untreated cells were washed twice with PBS and stained by Annexin V-PE and PI for 15 min without light exposure according to the manufacturer’s protocol. Apoptosis was quantified using a flow cytometer ((Becton, Dickinson and Company, USA).[32]

[6] = system: HUVEC; assay: Toxicity on HUVEC; assay type: cell-based, human
[7] = Kinetic solubility by nephelometry; assay type: physicochemical; details: kinetic from dmso stock, 1% DMSO
Description: Calculated physicochemical parameters. Physicochemical properties were calculated using the ChemAxon chemistry cartridge via JChem for Excel software (version 16.4.11). Compound 29e in DMSO was spiked into either pH 6.5 phosphate buffer or 0.01 M HCl (approximately pH 2.0) with the final DMSO concentration being 1%. After 30 min had elapsed, samples were analysed via Nephelometry to determine a solubility range.

[8] = In vitro metabolic stability, human liver microsomes; assay type: in vitro ADME; details: 0.4 mg/mL protein
Description: (§2) The metabolic stability assay was performed by incubating the test compound in mouse or human liver microsomes (XenoTech, lot no. 1510256) at 37 °C and a protein concentration of 0.4 mg/mL. Microsomal incubations were performed at a substrate concentration of 0.5 µM. Data analysis. Species scaling factors were used to convert the in vitro CLint(mL/min/mg) to an in vivo CLint(mL/min/kg).

[9] = In vitro metabolic stability, mouse liver microsomes; assay type: in vitro ADME; details: 0.4 mg/mL protein
Description: as §2

[10] = system: K562 cells; assay: Immunofluorescence staining of microtubule network; assay type: cell-based; details: K562, 0.1 uM and 0.3 uM; Figure 4F
[11] = system: HUVEC; assay: Transwell cell invasion experiment; assay type: cell-based, human; details: 0.1 µM to 10 µM, concentration-dependent
Description: The upper surface of Transwell membrane was precoated with 40 µL Matrigel gel and incubated for 45 min at 37 °C for gelling. Then, cells were trypsinized and seeded at 6х10^4 per upper chamber, and cultured in 1% foetal bovine serum medium containing different concentrations of compounds. The chamber was then placed in a 24-well plate to which 10% FBS had been added. After 48 h incubation at 37 °C, both chambers were washed with PBS three times, and then fixed with 4% paraformaldehyde for 15 min, followed by staining with crystal violet. The non-invasive cells on the upper surface membrane were wiped with cotton swabs. The image of the cells on the bottom face was recorded and quantified under an inverted microscope. The results were the means calculated from three replicates of each experiment.[37]

[12] = system: HUVEC; assay: Wound healing migration assay; assay type: cell-based, human; details: 0.1, 1 and 10 µM
[13] = system: HUVEC; assay: Tube formation assay; assay type: cell-based, human; details: 0.1, 1 and 10 µM
Description: Matrigel matrix (Basement Membrane Matrix, BD Biosciences) was thawed at 4 °C overnight. At this point, 50 µL of the matrix solution was added to each well of a 96-well plate. After gelling at 37 °C for 30 min, the matrix was overlaid with 200 µL of medium containing 1 × 10^5 HUVECs per well, which was incubated for 6 h to allow capillary tubes to form. Different concentrations of compounds were added in the cultures and incubated for 6 h to monitor the morphological changes of cells and tubes. The disappearance of existing vasculature was photographed at 10х magnification. Values were expressed as percent change form control cultures grown with complete medium.[36] Standard dimensional parameters (percent area covered by HUVECs and total length of the HUVEC network per field) were noted, and standard topological parameters (number of meshes and branching points per field) were estimated.

[14] = system: K562 cell xenograft in zebrafish embryos; assay: Zebrafish xenograft of K562 cells; assay type: in vivo; details: 2 µM and 6 µM, compared with the control group
Description: K562 cells were labelled with Red CMTPX according to the manufacturer’s protocol. Before the microinjections, Tg(flk:EGFP) embryos were kept at 28 °C and manually dechorionated few hours. At 48 hpf, 4 nL of cells suspension containing 400 labelled cells was microinjected into the yolk of anaesthetised embryos by a pneumatic pico pump (PV820, World Precision Instruments, USA). After injection, embryos were incubated to recover for at least 1 h at 28 °C, the embryos were distributed to 6-well plates with 20 embryos placed in each well. The injected xenografts were exposed to the indicated doses of compounds and maintained at 35 °C. DMSO (0.3%) was used as a vehicle control. The survival and development of the xenografted embryos was recorded every day until the end of experiment. At one day post injection (dpi), fluorescent microscopy was used to examine K562 cells size, death and migration in caudal region of anaesthetised zebrafish.

[15] = Preliminary cytotoxicity study on zebrafish embryos; details: zebrafish, in vivo
[16] = system: zebrafish embryos; assay: as above; details: at the concentration of 6 µM

SMILES: COc1cc(C(=O)/C=C/c2cn(S(=O)(=O)c3ccccc3)c3ccccc23)cc(OC)c1OC [Compound 29e, (E)-3–(1-(Phenylsulfonyl)-1H-indol-3-yl)-1–(3,4,5-trimethoxyphenyl)prop-2-en-1-one]
- Formation of intersegmental vessels (ISVs) in zebrafish embryos ([1]; 2.0 µM): efficiently blocked the formation of intersegmental vessels
- Number and length of ISVs in zebrafish embryos ([1]; 6.0 µM): the number and length of ISVs completely decreased
- IC50 ([1]; Danio rerio): 3.6 µM
- IC50 [1]: 3.4 ± 0.3 µM
- IC50 [2]: 0.37 ± 0.03 µM
- IC50 [3]: 1.22 ± 0.12 µM
- IC50 [4]: 0.26 ± 0.11 µM
- percentage of apoptotic cell [5]: 45.81%
- IC50 ([6]; Homo sapiens, HUVEC): 58.6 µM
- toxicity on HUVEC ([6]; at the concentration of 10 µM): did not cause any toxicity on HUVEC
- solubility at 30 min ([7]; 0.01 M HCl, pH 2, simulated gastric fluid, 0.01 M HCl, read-out: Solubility pH 2.0): 25 to 50 µg/mL (≈ 52.4 to 105 µM)
- solubility at 30 min ([7]; phosphate buffer, pH 6.5, aqueous buffer, phosphate buffer, read-out: Solubility pH 6.5): ≤ 150 µg/mL
- microsomal CLint at 0.5 µM [8]: 16 µL/min/mg
- half-life at 0.5 µM ([8]; 37 °C, read-out: Degradation half-life Human): 35 min
- microsomal CLint at 0.5 µM [9]: 77 µL/min/mg
- half-life at 0.5 µM ([9]; 37 °C, read-out: Degradation half-life Mouse): 60 min
- Effect on cellular microtubule network [10]: conspicuous disorder for the microtubule network
- HUVEC invasion (Transwell) [11]: the number of HUVEC invasion decreased
- HUVEC wound closure / migration [12]: markedly decreased the closure of wound scratching
- HUVEC tubule-like networks [13]: sharply reduced the width and length
- K562 fluorescence intensity and tumour area in zebrafish xenograft [14]: reduced intensities and decreased tumour area
- IC50 [15]: 44.6 µM
- toxicity on zebrafish embryos [16]: did not cause the toxicity
